# Patent publication US12377095B2, “Use of ligustrazine nitrone derivatives in treatment and prevention of diabetic complication diseases” (QINGDAO HAILAN PHARMACEUTICALS CO., LTD., priority 2019, dated 2025)
# Columns and labels:
# STZ-induced DKD rats [1] = experiment: Masson staining, interstitial fibrosis index, STZ-induced DKD rats; assay type: in vivo, rat
# Method: (§1) Before the injection, the rats were fasted for 12 hours without water. After weighing, the rats were injected with 55 mg/kg STZ intraperitoneally (STZ needs to be injected quickly, and the injection was completed within 10 minutes), and then returned to the cage to ensure that the rats had sufficient drinking water for 24 hours. Rats were injected with an equal volume of citrate buffer (pH 4.5). After STZ injection for 3 weeks, blood was collected from the tail vein, and blood glucose ≥16.7 mmol/L was used as the criteria for the standard of the rats.
# (§2) The route of administration is intragastric administration. TBN was administered twice a day (fixed at 9:00-10:00 am and 3:00-4:00 pm), and Losartan was administered once a day (fixed at 9:00-10:00 am) continuously for 6 weeks.
# At the end of the experiment, the kidney tissues were quickly separated, fixed with 4% paraformaldehyde and embedded in paraffin, serially sliced, 5 μm each, dried at 37° C. for 1 h, and then subjected to Masson staining. The process is briefly as follows: paraffin sections are taken out of the 65° C. oven and immediately put in xylene for dewaxing and gradient alcohol rehydration, according to the kit instructions, add reagent A (a mixture of equal amounts of A1 and A2) for dyeing for 8 min; then use Reagent B differentiates and reagent C turns blue; reagent D stains for 7 min; reagent E washes for 1 min; reagent F washes for 1 min; reagent G stains for 1 min; dehydrated with 95% ethanol and absolute ethanol, transparent xylene, sealed with neutral gum piece.
# STZ-induced SHR rats = experiment: HE kidney morphology of STZ-induced SHR rats; assay type: in vivo, rat; conditions: 60 mg/kg
# Method: 6 W-age SHR rats were abstained from food but not water for 12 h before injection, and then intraperitoneally injected with 55 mg/kg STZ after weighing (STZ required for fast injection, to be completed within 10 min), then put back to the cage to ensure that rat has sufficient drinking water in the period of 24 h, and the rats of normal control group were injected with citric acid buffer (pH 4.5) in the same volume. After 3 weeks of STZ injection, retinal venous blood was collected, and blood glucose ≥16.7 mmol/L was used as a molding standard, where the model of SHR rats that meet the above criteria is considered successful.
# The route of administration is intragastrical, TBN is administered twice a day (fixed at 9:00-10:00 am and 3:00-4:00 pm), and Losartan is administered once a day (fixed at 9:00-10:00 am), continuously for 6 weeks.
# The process is the same as in Example 9.
# STZ-induced DKD rats [2] = experiment: Serum erythropoietin (ELISA) in STZ-induced DKD rats; assay type: in vivo, rat
# Method: as §1, §2
# At the end of the experiment, after rats were anesthetized, blood was taken from the abdominal aorta, allowed to stand for 1 hour, the supernatant was collected by centrifugation at 3000 rmp for 10 min. The serum erythropoietin level was measured according to the kit operating instructions. […] In the measurement, the blank hole was adjusted to zero, and the absorbance (OD value) of each hole was measured in sequence with a wavelength of 450 nm. […]
# [3] = tested on: spontaneous diabetic model in rhesus monkeys; experiment: Spontaneous diabetic model in rhesus monkeys, serum EPO and iron; assay type: in vivo
# [4] = tested on: cisplatin-induced C57BL/6J mice; experiment: Serum erythropoietin in cisplatin-induced renal anemia C57BL/6J mice; assay type: in vivo, mouse
# Method: Modeling method: the animals were randomly divided into 5 groups, i.e., normal control group, model group, three treatment groups, wherein the normal control group was injected with equal volume of normal saline, the model group and three treatment groups were intraperitoneally injected with cisplatin (CDDP) 5 mg/kg once a week, for 4 weeks.
# The route of administration is intragastrical. TBN is administered twice a day (fixed at 9:00-10:00 am and 3:00-4:00 pm), and Roxadustat is administered once every two days (fixed at 9:00-10:00 am), for 4 weeks.
# At the end of the experiment, after rats were anesthetized, the blood was taken from the abdominal aorta, allowed to stand for 1 hour, centrifuged at 3000 rpm for 10 min, and stored in aliquots at −80° C. The content of erythropoietin in the serum was detected by using of a kit. After the administration, compared with the model group, the TBN treatment groups can increase the expression of erythropoietin to varying degrees.
# db/db mice = experiment: Urinary albumin/creatinine ratio in db/db mice, TBN alone and in combination; assay type: in vivo, mouse; conditions: TBN 30 mg/kg, Losartan 10 mg/kg, TBN+Losartan (FIG. 17)
# Method: Grouping and dosing are the same as in Example 9. At the end of the experiment, 24 h urine samples were collected, antiseptic treatment was performed to all urine specimens with toluene, 24 h urine was centrifuged to remove precipitation and placed in a 1.5 mLEP tube and then placed in a refrigerator at −20° C. for later use, urinary albumin content was measured with ELISA kits, urine creatinine levels were detected by use of an automatic biochemical analyzer, and the ratio of both was calculated. The results as shown in FIG. 19 indicate that the ratio of urinary microalbumin to creatinine in DB/DB group was higher than that in wt/wt group, and the db/db mice 24 h urinary albumin creatinine ratio decreased in TBN group, losartan group and TBN-losartan combination group. Referring to this method, metformin (150 mg/kg, qd), and HIF-PH inhibitor roxadustat (10 mg/kg, once 2 every days) were given via oral administration, the combination groups of TBN with respectively metformin and roxadustat also reduce 24 h urinary albumin creatinine ratio.
# STZ-induced DKD rats [5] = experiment: PAS staining, glomerular sclerosis index, STZ-induced DKD rats; assay type: in vivo, rat; conditions: all doses of TBN (10, 30, 60 mg/kg twice/day); Losartan 10 mg/kg once/day; 6 weeks; P<0.001 vs Vehicle
# Method: as §1, §2
# At the end of the experiment, kidney tissues were quickly separated, fixed with 4% paraformaldehyde and embedded in paraffin, serially sliced, 5 μm each, dried at 37° C. for 1 h, and then stained with PAS. The process is briefly as follows: paraffin sections are taken out of the 65° C. oven and immediately placed in xylene for deparaffinization and gradient alcohol rehydration, followed by periodic acid treatment for 5 min and Schiff treatment for 10 min, and then differentiation is performed with differentiation solution for 10 s. […]
structure (smiles),measurement,setting,value
Cc1nc(C)c(/C=[N+](\[O-])C(C)(C)C)nc1C [TBN],interstitial fibrosis index,"STZ-induced DKD rats [1]; 60 mg/kg, P<0.01",improved the most significantly
same,interstitial fibrosis index,"STZ-induced DKD rats [1]; TBN treatment groups (10, 30, 60 mg/kg), dose-dependent",decreased
same,renal pathological changes (H&E),STZ-induced SHR rats,improvement
same,serum EPO content,"STZ-induced DKD rats [2]; 30 mg/kg and 60 mg/kg, P<0.05",increased EPO content with significant statistical difference
same,serum EPO content,"STZ-induced DKD rats [2]; TBN dose groups (10, 30, 60 mg/kg) vs vehicle, to varying degrees",increased
same,serum EPO content,[3],increase
same,serum iron content,[3],increase
same,expression/content of erythropoietin vs model group,"[4]; TBN treatment groups (30, 60 mg/kg), to varying degrees, dose dependence",increase
same,efficacy on EPO content compared with positive control drug,[4]; high-dose group (60 mg/kg) vs Roxadustat 10 mg/kg,stronger than that of the positive control drug
same,24 h urinary albumin creatinine ratio,db/db mice,decreased
same,glomerular sclerosis index,STZ-induced DKD rats [5],significantly reduce
